Patent US12605446B2, “PSMA-targeted immunotherapies for cancers” (THE METHODIST HOSPITAL, priority 2020, dated 2026)

Tests used:
[1] = tested on: PSMA expression in LNCaP cells; assay: PSMA expression after antiandrogen or androgen treatment, LNCaP; type: cell-based
[2] = tested on: PSMA expression in VCaP cells; assay: PSMA expression after antiandrogen or androgen treatment, VCaP; type: cell-based
[3] = tested on: PSMA-positive LNCaP cells; assay: Flow cytometric binding of anti-PSMA mAbs to prostate cancer cells; conditions: mixed PC3 and LNCaP cells, 20 μg antibody, FITC anti-mouse IgG secondary antibody
Procedure: PC3 cells and […] cells are mixed and incubated with 20 μg of J591, our home-made mAb #1352, or […] as a negative control. Next, the cells were incubated with FITC anti-mouse IgG secondary antibody (Biolegend, cat #406001), followed by flow cytometric analysis.
(A2). Development of anti-PSMA mAbs and construction of PSMA-CARs. The process of PSMA-CAR T cell therapy development is shown in the flowchart (FIG. 13A). PSMA extracellular domain was produced in baculovirus-insect cell expression system as reported. Purified recombinant PSMA protein was used to immunized BALB/c mice. Out of 38 ELISA-positive hybridomas, seven were confirmed by flow cytometry for their antibody-specific binding to PSMA-positive LNCaP and VCaP cells, but not to PSMA-negative PC3 cells.

[4] = tested on: PSMA-positive prostate cancer cell lines LNCaP and VCaP; assay: Murine FCγRIII ADCC reporter bioassay; type: cell-based; conditions: in vitro ADCC assay

**Q.** For `C[C@]1(O)CC[C@H]2[C@@H]3CCC4=CC(=O)CCC4=C3C=C[C@@]21C` [R1881], which “PSMA mRNA levels” value ([1]; 10 nM R1881) is on record?
**A.** reduced

**Q.** And the “PSMA mRNA levels” value ([2]; 10 nM R1881)?
**A.** reduced

**Q.** For `CNC(=O)c1ccc(N2C(=S)N(c3ccc(C#N)c(C(F)(F)F)c3)C(=O)C2(C)C)cc1F` [enzalutamide], which “PSMA mRNA levels” value ([1]; 10 μM enzalutamide, 48 hours) is on record?
**A.** increased

**Q.** And the PSMA protein levels ([1]; Enzalutamide, 72 hrs)?
**A.** increased

**Q.** What about the “PSMA mRNA levels” value ([2]; 10 μM enzalutamide, 48 hours) of the same molecule?
**A.** increased

**Q.** What about the PSMA protein levels ([2]; Enzalutamide, 72 hrs) of the same molecule?
**A.** increased

B1: #1377: anti-PSMA mouse monoclonal antibody of hybridoma #1377; VH SEQ ID NO: 16, VL SEQ ID NO: 18 (antibody, V domains shown)
VH: VQLQQPGAALVRPGASVRLSCKASGYSFTYYWMNWVMQRPGQGLEWIGMIHPSDSETRLSQKFRDKATLTVDKSSSTVYMQLNSPTSDDSAVYYCARDGNFPYYALDYWGQGTSVTVSS
VL: DVVLTQAPLSLPVSLGDQASISCRSSQSLEYSNGNTYLHWYLQKPGQSPELLIYTVSNRFSGVPDRFSGSGSGTDFTLKIHRVEAEDLGVYFCSQSTHVPTFGGGTKLEIKR
**Q.** Which “binding to LNCaP cells by flow cytometry” value [3] does the source give for B1 here?
**A.** bind to LNCaP cells with high affinity

B2: #1352: anti-PSMA mouse monoclonal antibody of hybridoma #1352; VH SEQ ID NO: 24, VL SEQ ID NO: 26 (antibody, V domains shown)
VH: VKLQQSGPELEKPGASVKISCKASGYSFTGYNVNWVKQSNGKSLEWIGNIDPYHGGTTYNQKFEAKATLTVDKSSSTAYMQLKSLTSEDSAVYYCARSSRFDYWGQGTTLTVSS
VL: DIVMTQSHKFMSTSVGDRVNITCKASQDVGTAVAWYQQKPGQSPKFLIYWASTRHTGVPDRFTGSGSGTDFTLTISNVQSEDLADYFCHQYTSYPFTFGSGTKLEMKR
**Q.** How did the “binding to LNCaP cells by flow cytometry” value [3] turn out when B2 was run?
**A.** detected as the FITC positive cells

**Q.** And the “induction of ADCC activity” value [4]?
**A.** most potent

B3: #219: anti-PSMA mouse monoclonal antibody of hybridoma #219; VH SEQ ID NO: 12, VL SEQ ID NO: 14 (antibody, V domains shown)
VH: VQLQQSGPELEKPGASVKMSCKASGYSFTGYNVNWVRQNNGKSLEWIGNIDPLHGGTTYNQKFKAKATLTVDRSSSTAYLQLKNLTSEDSAVYYCARSSRFDYWGQGTTLTVSS
VL: DIVMTQSHKFMSTSVGDRVNITCKASQDVGTAVAWYQQKPGQSPKLLIYWASTRHTGVPDRFTGSGSGTDFTLTISNVQSEDLADYFCHQFTSYPFTFGSGTSLEMKR
**Q.** Which “binding to LNCaP cells by flow cytometry” value [3] does the source give for B3 here?
**A.** bind to LNCaP cells with high affinity

B4: #1207: anti-PSMA mouse monoclonal antibody of hybridoma #1207; VH SEQ ID NO: 28, VL SEQ ID NO: 30 (antibody, V domains shown)
VH: VKLQQSGPGLVKPSQSLSLTCAVTGYSITSDYAWNWIRKFPGNKLEWMGYISYSGRTTYNPSLESRISITRDTSKNQFFLQLNSVTTEDTATYYCARCYYGSSSRWYGMDYWGRGTSVAVSS
VL: IVLTQSPAIMSASPGVKVTMTCRASSSVDSSYLHWYQQKSGASPQVWIYSTSNLASGVPARFSGSGSGTSYSLTISSVEAEDAATYYCQQYSGYPLTFGGGTKLEIKR
**Q.** How did the “binding to LNCaP cells by flow cytometry” value [3] turn out when B4 was run?
**A.** bind to LNCaP cells with high affinity

B5: #1366: anti-PSMA mouse monoclonal antibody of hybridoma #1366; VH SEQ ID NO: 20, VL SEQ ID NO: 22 (antibody, V domains shown)
VH: VKLQESGPGLVAPSQSLSITCTVSGFSLTDYGVSWIRQPPGKGLEWLGVIWSDGNTYYNSPLKSRLSINKDNSKSQVFLKMNSLQTDDSAMYYCARHKVYTMDYWGQGTSVTVSS
VL: TVLTQSPAIMSASPGEKVTMTCRASSSVSSSYLHWYQQKSSASPKLWIYRTSNLASGVPARFSGSGSGTSYSLTISSLEAEDAATYYCQQYSGYPLTFGAGTKLELKR
**Q.** How did the “binding to LNCaP cells by flow cytometry” value [3] turn out when B5 was run?
**A.** bind to LNCaP cells with high affinity
